From patent US20130040908A1, “SUBSTITUTION DERIVATIVES OF N6-BENZYLADENOSINE-5' -MONOPHOSPHATE, METHODS OF PREPARATION THEREOF, USE THEREOF AS MEDICAMENTS, AND THERAPEUTIC PREPARATIONS CONTAINING THESE COMPOUNDS” (BIOAPEX, S.R.O., priority 2010, published 2013)

Assays:
[1] = test system: HL-60 (promyelocytic leukemia); test: Calcein AM cytotoxicity assay, HL60; assay type: cell-based, human; conditions: HL60, 72 hours
Text: (§1) Because toxic compounds negatively influence metabolic processes in cells, many standard cytotoxicity assays are based on measurement of metabolisation rate of various artificial substrates. Resulting product is then quantified e.g. by means of spectrometry. The assays can be easily modified for use in 96-well plates. For evaluation of cytotoxic effect of the novel substituted 9-substituted cytokinin derivatives of this invention, a microtiter assay based on quantification of metabolisation of Calcein AM was used. The assay is widely used in drug screening programs and in chemosensitivity testing. In the living cells, Calcein AM is enzymatically hydrolysed and accumulation of resulting calcein is manifested by green fluorescence.
(§2) Normal human fibroblasts BJ were used as a control for routine screening of the compounds. The cells were kept in Nunc/Corning 80 cm^2 plastic bottles and grown in cell culture medium (DMEM containing 5 g/l glucose, 2 mM glutamine, 100 U/ml penicillin, 100 μg/ml streptomycine, 10% fetal bovine serum and sodium hydrogencarbonate), the compounds were prepared according to the procedure of the present invention.
(§3) The cell suspensions were prepared and diluted according to the particular cell type and the expected target cell density (2.500-30.000 cells per well based on cell growth characteristics) and pippetted (80 μl) into 96-well plates. […] Tested compound was added in total volume of 20 μl of water at time zero. Usually, test compound was evaluated at six 3-fold dilutions. […] All drug concentrations were tested in triplicates. […] At the end of incubation period Calcein AM in PBS was added into final concentration of 1 μg/ml. After another 1 hour of incubation fluorescence (FD) was measured with the Labsystem FIA Reader Fluoroscan Ascent (UK). Growth inhibition (GI) was estimated using the following equitation: GI=(mean FDdrug exposed wells−mean FDblank)/(mean FDcontrol wells−mean FDblank)×100%.

[2] = test system: K-562 (human erythroleukemia); test: Calcein AM cytotoxicity assay, K-562; assay type: cell-based; conditions: K-562, 72 hours
Text: as §1, §2, §3

[3] = test system: CEM (T-lymphoblastoid leukemia); test: Calcein AM cytotoxicity assay, CEM; assay type: cell-based; conditions: 72 hours
Text: as §1, §2, §3

## O=P(O)(O)OC[C@H]1O[C@@H](n2cnc3c(NCc4ccc(F)cc4Cl)ncnc32)[C@H](O)[C@@H]1O [2-chloro-4-fluorobenzylamino, 6-(2-chloro-4-fluorobenzylamino)purine riboside-5′-monophosphate]
[1]
  GI50: 7.9 µM
[2]
  GI50: 9.6 µM
[3]
  GI50: 12.7 µM

## O=P(O)(O)OC[C@H]1O[C@@H](n2cnc3c(NCc4cccc(Br)c4)ncnc32)[C@H](O)[C@@H]1O [Compound 8, 6-(3-bromoobenzylamino)purine riboside-5′-monophosphate]
[1]
  GI50: 4.2 µM
[2]
  GI50: 19.1 µM
[3]
  GI50: 5.1 µM

## O=P(O)(O)OC[C@H]1O[C@@H](n2cnc3c(NCc4ccc(Br)cc4)ncnc32)[C@H](O)[C@@H]1O [Compound 9, 6-(4-bromobenzylamino)purine riboside-5′-monophosphate]
[1]
  GI50: 41.3 µM
[2]
  GI50: 49.9 µM
[3]
  GI50: 17.6 µM

## O=P(O)(O)OC[C@H]1O[C@@H](n2cnc3c(NCc4ccc(O)cc4)ncnc32)[C@H](O)[C@@H]1O [Compound 23, 6-(4-hydroxybenzylamino)purine riboside-5′-monophosphate]
[1]
  GI50: 9.7 µM
[3]
  GI50: 19.4 µM

## COc1cccc(CNc2ncnc3c2ncn3[C@@H]2O[C@H](COP(=O)(O)O)[C@@H](O)[C@H]2O)c1OC [Compound 31, 6-(2,3-dimethoxybenzylamino)purine riboside-5′-monophosphate]
[1]
  GI50: 91 µM

## COc1ccc(CNc2ncnc3c2ncn3[C@@H]2O[C@H](COP(=O)(O)O)[C@@H](O)[C@H]2O)c(OC)c1 [Compound 32, 6-(2,4-dimethoxybenzylamino)purine riboside-5′-monophosphate]
[1]
  GI50: 41 µM

## COc1cc(CNc2ncnc3c2ncn3[C@@H]2O[C@H](COP(=O)(O)O)[C@@H](O)[C@H]2O)cc(OC)c1 [Compound 34, 6-(3,5-dimethoxybenzylamino)purine riboside-5′-monophosphate]
[1]
  GI50: 19.8 µM

## O=P(O)(O)OC[C@H]1O[C@@H](n2cnc3c(NCc4ccc(F)cc4F)ncnc32)[C@H](O)[C@@H]1O [Compound 36, 6-(2,4-difluorobenzylamino)purine riboside-5′-monophosphate]
[1]
  GI50: 2.8 µM
[2]
  GI50: 5.9 µM
[3]
  GI50: 4.9 µM

## O=P(O)(O)OC[C@H]1O[C@@H](n2cnc3c(NCc4cc(F)cc(F)c4)ncnc32)[C@H](O)[C@@H]1O [Compound 37, 6-(3,5-difluorobenzylamino)purine riboside-5′-monophosphate]
[1]
  GI50: 6.9 µM
[3]
  GI50: 21.1 µM

## O=P(O)(O)OC[C@H]1O[C@@H](n2cnc3c(NCc4ccc(F)c(F)c4F)ncnc32)[C@H](O)[C@@H]1O [Compound 38, 6-(2,3,4-trifluorobenzylamino)purine riboside-5′-monophosphate]
[1]
  GI50: 11.3 µM
[3]
  GI50: 58.6 µM

## O=P(O)(O)OC[C@H]1O[C@@H](n2cnc3c(NCc4c(F)ccc(F)c4F)ncnc32)[C@H](O)[C@@H]1O [Compound 40, 6-(2,3,6-trifluorobenzylamino)purine riboside-5′-monophosphate]
[1]
  GI50: 11.3 µM
